In patent publication US9657018B2, “Antagonists acting at multiple prostaglandin receptors for the treatment of inflammation” (Allergan, Inc., priority 2014, dated 2017):

Columns and labels:
Assay type in all cases: cell-based
[1] = biological target: T1, human prostanoid EP3 receptor (Homo sapiens, UniProt P43115); experiment: FLIPR Ca2+ signaling antagonist assay, EP3 receptor stable cell line; details: human recombinant EP3 + chimeric Gqi in HEK-293 EBNA cells; standard agonist PGE2; NA = no antagonism or Kb>=10,000 nM
T1 construct: expressed in transfected cells
T1 sequence (P43115 1-390): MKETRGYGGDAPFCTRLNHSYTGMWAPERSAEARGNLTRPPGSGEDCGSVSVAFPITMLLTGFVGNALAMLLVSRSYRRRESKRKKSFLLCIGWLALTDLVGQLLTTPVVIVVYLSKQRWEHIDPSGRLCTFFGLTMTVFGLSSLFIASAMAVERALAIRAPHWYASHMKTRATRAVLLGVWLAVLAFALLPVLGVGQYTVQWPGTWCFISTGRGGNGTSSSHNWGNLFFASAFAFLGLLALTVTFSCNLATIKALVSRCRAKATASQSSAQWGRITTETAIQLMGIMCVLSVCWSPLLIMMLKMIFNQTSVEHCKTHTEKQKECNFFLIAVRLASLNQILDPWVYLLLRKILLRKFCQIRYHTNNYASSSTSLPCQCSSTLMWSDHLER
Procedure: (§1) The above compounds were tested for PG antagonist activity as follows using human recombinant prostanoid receptor (DP1, EP1-4, FP, IP and TP) stable cell lines:
(§2) In order to measure the response of Gs and Gi coupled prostanoid receptors as a Ca^2+ signal, chimeric G protein cDNAs were used. Stable cell lines over-expressing human prostanoid DP1, EP1-4, FP, IP, and TP receptors were established as follows:
(§3) Briefly, human prostanoid DP1, EP2, and EP4 receptor cDNAs were co-transfected with chimeric Gqs cDNA containing a haemagglutanin (HA) epitope; human prostanoid EP3 receptors were co-transfected with chimeric Gqi-HA; human EP1, FP, IP, and TP receptor cDNAs were expressed with no exogenous G-proteins. Gqs and Gqi chimeric cDNAs (Molecular Devices, Sunnyvale, Calif., U.S.A.), as well as cDNAs of prostanoid receptors, were cloned into a pCEP4 vector with a hygromycin B selection marker. Transfection into HEK-293 EBNA (Epstein-Barr virus nuclear antigen) cells was achieved by the FuGENE 6 transfection Reagent (Roche Applied Science, Indianapolis, Ind., USA). Stable transfectants were selected according to hygromycin resistance. Because Gqs and Gqi contained an HA epitope, G-protein expression was detected by Western blotting analysis using anti-mouse HA monoclonal antibody and horseradish peroxidase (HRP)-conjugated secondary antibody, while functional expression of prostanoid receptors was detected by FLIPR screening (Matias et al., 2004). These stable cell lines were validated using previously published antagonists at 10 μM against serial dilutions of standard agonists by FLIPR functional assays for Ca^2+ Signaling (as described below).
(§4) Ca^2+ signaling studies were performed using a FLIPR TETRA system (Molecular Devices, Sunnyvale, Calif., USA) in the 384-format. This is a high-throughput instrument for cell-based assays to monitor Ca^2+ signaling associated with GPCRs and ion channels. Cells were seeded at a density of 5×10^4 cells/well in BioCoat poly-D-lysine coated, black wall, clear bottom 384-well plates (BD Biosciences, Franklin lakes, NJ, USA) and allowed to attach overnight in an incubator at 37° C. The cells were then washed twice with HBSS-HEPES buffer (Hanks' balanced salt solution without bicarbonate and phenol red, 20 mM HEPES, pH 7.4) using an ELx405 Select CW Microplate Washer (BioTek, Winooski, Vt., USA). After 60 min of dye-loading in the dark using the Ca^2+-sensitive dye Fluo-4AM (Invitrogen, Carlsbad, Calif., USA), at a final concentration of 2×10^−6M, the plates were washed 4 times with HBSS-HEPES buffer to remove excess dye and leaving 50 μl of buffer in each well. The plates were then placed in the FLIPR TETRA instrument and allowed to equilibrate at 37° C. AGN-211377 was added in a 25 μl volume to each well to give final concentrations of 0.1 μl. M, 0.4M, 1 μM, 3 μl. M, 10 μl. M, and 30 μl. M; or 0.067 μM, 0.4M, 0.67 μM, and 1 μM for cells over-expressing TP receptors. After 4.5 minutes, a 7-point serial dilution of the standard agonist for the corresponding receptor, in a 25 μl volume was injected at the final concentrations from 10^−11M to 10^−5M in 10-fold serial dilution increments for cells expressing human recombinant DP1, EP1, EP2, EP3, EP4, FP, and IP receptors. The dose range for the standard agonist for human recombinant TP receptors was from 10^−12M to 10^−6M. HBSS-HEPES buffer was used as the negative control for the standard agonists. Cells were excited with LED (light emitting diode) excitation at 470-495 nm and emission was measured through an emission filter at 515-575 nm. Assay plates were read for 3.5 minutes using the FLIPR^TETRA. The peak increase in fluorescence intensity was recorded for each well. On each plate, negative controls, dose response of positive controls, and co-treatments of antagonist-agonist for each dose were in triplicates. Standard agonists were as follows: DP=BW 245C, EP1-EP4=PGE2, FP=17-phenyl-PGF2a, IP=Cicaprost, and TP=U-46619. […]

[2] = biological target: T2, human prostanoid EP4 receptor (Homo sapiens, UniProt P35408); experiment: FLIPR Ca2+ signaling antagonist assay, EP4 receptor stable cell line; details: human recombinant EP4 + chimeric Gqs in HEK-293 EBNA cells; standard agonist PGE2; NA = no antagonism or Kb>=10,000 nM
T2 construct: expressed in transfected cells
Procedure: as §1, §2, §3, §4

[3] = biological target: T3, human prostanoid IP receptor (Homo sapiens, UniProt P43119); experiment: FLIPR Ca2+ signaling antagonist assay, IP receptor stable cell line; details: human recombinant IP in HEK-293 EBNA cells; standard agonist Cicaprost; NA = no antagonism or Kb>=10,000 nM
T3 construct: expressed in transfected cells
Procedure: as §1, §2, §3, §4

[4] = biological target: T4, human prostanoid DP1 receptor (Homo sapiens, UniProt Q13258); experiment: FLIPR Ca2+ signaling antagonist assay, DP1 receptor stable cell line; details: human recombinant DP1 + chimeric Gqs in HEK-293 EBNA cells; standard agonist BW 245C; NA = no antagonism or Kb>=10,000 nM
T4 construct: expressed in transfected cells
T4 sequence (Q13258 1-359): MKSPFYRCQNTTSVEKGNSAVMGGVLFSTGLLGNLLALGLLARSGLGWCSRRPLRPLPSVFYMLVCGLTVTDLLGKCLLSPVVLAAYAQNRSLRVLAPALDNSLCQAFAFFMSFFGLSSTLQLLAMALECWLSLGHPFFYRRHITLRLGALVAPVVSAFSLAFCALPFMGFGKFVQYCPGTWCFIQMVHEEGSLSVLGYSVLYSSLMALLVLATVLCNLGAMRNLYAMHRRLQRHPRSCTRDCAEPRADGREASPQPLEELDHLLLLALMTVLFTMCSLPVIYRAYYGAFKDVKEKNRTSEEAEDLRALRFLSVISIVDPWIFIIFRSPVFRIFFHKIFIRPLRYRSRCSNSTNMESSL
Procedure: as §1, §2, §3, §4

T2 sequence (P35408 whole entry): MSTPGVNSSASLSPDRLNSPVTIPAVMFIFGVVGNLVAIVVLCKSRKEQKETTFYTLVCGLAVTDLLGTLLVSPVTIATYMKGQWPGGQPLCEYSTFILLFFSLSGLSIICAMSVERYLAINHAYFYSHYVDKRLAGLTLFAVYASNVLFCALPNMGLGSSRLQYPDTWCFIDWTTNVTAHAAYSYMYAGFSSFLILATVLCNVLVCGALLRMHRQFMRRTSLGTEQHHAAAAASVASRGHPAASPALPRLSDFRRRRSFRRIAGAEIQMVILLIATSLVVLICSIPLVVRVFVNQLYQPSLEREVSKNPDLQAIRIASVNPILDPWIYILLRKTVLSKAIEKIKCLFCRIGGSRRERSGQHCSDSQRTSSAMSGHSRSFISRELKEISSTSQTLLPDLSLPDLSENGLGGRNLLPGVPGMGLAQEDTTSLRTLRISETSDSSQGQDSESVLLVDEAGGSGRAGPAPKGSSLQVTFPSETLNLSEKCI
T3 sequence (P43119 whole entry): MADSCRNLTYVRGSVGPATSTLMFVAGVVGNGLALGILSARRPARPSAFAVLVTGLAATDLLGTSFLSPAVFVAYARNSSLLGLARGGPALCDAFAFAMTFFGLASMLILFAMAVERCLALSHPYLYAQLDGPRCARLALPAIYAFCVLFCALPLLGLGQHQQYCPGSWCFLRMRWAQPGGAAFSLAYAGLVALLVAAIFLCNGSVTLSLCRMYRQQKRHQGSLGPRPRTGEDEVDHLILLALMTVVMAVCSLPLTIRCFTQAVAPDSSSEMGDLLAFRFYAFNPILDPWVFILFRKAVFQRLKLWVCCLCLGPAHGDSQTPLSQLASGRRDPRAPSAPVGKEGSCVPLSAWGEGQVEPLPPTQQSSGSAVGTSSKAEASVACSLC

Row | Kb [1] [nM] | Kb [2] [nM] | Kb [3] [nM] | Kb [4] [nM] | SMILES
1 | > 10000 | 60 | 9300 | 3700 | CC(C)Cn1ncc2cc(Cl)cc(Cn3nc(N)c4cc(C(=O)O)ccc43)c21 [Compound 68, 3-Amino-1-[(5-chloro-1-isobutyl-indazol-7-yl)methyl]indazole-5-carboxylic acid]
2 | 8100 | 1 | 900 | 1000 | CNc1nn(Cc2cc(Cl)cc3cnn(CC(C)C)c23)c2ccc(C(=O)O)cc12 [Compound 70, 1-[(5-Chloro-1-isobutyl-indazol-7-yl)methyl]-3-(methylamino)indazole-5-carboxylic acid]
